The source of these data is paper doi:10.1101/2023.01.01.522448v1 (biorxiv, 2023).

In general, Km refers to the concentration of substrate that gives half-maximal velocity.

The assay deals with PrASNase (glutaminase-free recombinant L-asparaginase). Description: Nesslerization. The class given is biochemical, Metapseudomonas resinovorans. As to conditions: pH 8.6, 37°C; 500 nM enzyme; 2-20 mM substrate.

On to `NC(=O)C[C@H](N)C(=O)O` [L-asparagine], for which the Michaelis constant (Km) was determined as 9.49 mM.
